We go through one compound from patent US20240350649A1, “TREATMENT AND DIAGNOSIS OF IMMUNE DISORDERS RELATING TO ABERRANT IMMUNE CELLS” (Octagon Therapeutics, Inc., priority 2021, published 2024).

What all share (type): cell-based
The subject of one test is CD19+ primary B cells. Kind of test: BrdU incorporation proliferation assay, primary B cells stimulated with donor plasma. The conditions noted are these: OTG177 up to 1000 μM, 72 hours. The method, then:
(§1) 0.5×10^6 primary cells (purified CD19+ primary B cells, Precision for Medicine, MD) or 0.5×10^6 CD3+ primary T cells (Precision for Medicine, MD) from a healthy donor were assayed for their rate of proliferation via the BrdU incorporation method (Roche kit 11647229001), following vendor protocols. In brief, BrdU was added to cell culture for 2 hours-12 hours. The cells were dried with hot air ventilation and fixed with saline and ethanol. The incorporated BrdU was measured with an ELISA assay with an anti BrdU antibody (Roche).
(§2) A representative compound according to the disclosure, OTG177 (FIG. 4), was constructed according to the synthetic scheme shown in FIGS. 2A and 2B using the Bait CD10 substrate succinyl-Ala-Ala-Phe- and an antiproliferative Payload RMP. This compound was tested in this proliferation assay as follows: negative selected lymphocytes (either B or T cells) were incubated with different concentration of OTG177 up to 1000 μM with 10% plasma from either a healthy donor or a flaring Pemphigus Vulgaris donor. All conditions had 30 units/ml of heparin to prevent clotting of the plasma. Cells were incubated for 72 hours at 37° C. 5% CO2 and a BrdU incorporation assay was performed with kit (Roche) as described before.
Background: Incorporation of labelled thymidine or its analogues reports DNA synthesis.

The next test has as its system CD3+ primary T cells. Kind of test: BrdU incorporation proliferation assay, primary T cells stimulated with donor plasma. Conditions: OTG177 up to 1000 μM, 72 hours. The method, then:
as §1, §2

Test [1] has as its system PBMC (granulocytes, monocytes, lymphocytes). Kind of test: Mixed-cell assay, PBMC composition by flow cytometry (SSC vs CD45). The conditions noted are these: up to 50 μM; healthy, PV or SLE donor plasma; FIG. 5B. The method, then: (§3) 0.5×10^6 primary cells (purified CD19+ primary B cells (Precision for Medicine, MD) or 0.5×10^6 CD3+ primary T cells (Precision for Medicine, MD Primary PBMCs (Precision for Medicine, MD) from a healthy donor were stimulated with 10% v/v plasma from either a healthy donor, a pemphigus vulgaris (PV) donor, or a systemic lupus erythematosus (SLE) donor for 24 hours at 37 C, 5% CO2. Compound OTG177 was added at 1 μM, 10 μM and 50 μM concentrations with DMSO as a mock treatment. After 24 hours-72 hours of treatment, cells were labeled with anti-CD45 antibody (5 μl/million cells in 100 μl volume, clone HI30, BUV395, Biolegend, CA), anti-CD19 antibody (5 μl per million cells in 100 μl volume, Clone HIB, PE-CF594, Biolegend, CA) anti-CD3 antibody (5 μl/million cells in 100 μl volume, clone SK7, FITC, Biolegend, CA). Propidium (1 μg/ml) was used to select cells based on their viability. The cells were analyzed by multi-colored flow cytometry using an Attune NxT Flow Cytometer (ThermoFisher).
Overall peripheral blood mononuclear cell (PBMC) composition was evaluated by gating side scattering (SSC) versus CD45, a pan leukocyte marker (FIG. 5A). This gating strategy can differentiate different leukocyte populations based on their scattering profiles.
(A flow cytometer gives signals particle by particle.)

Test [2] has as its system primary CD19+ B lymphocytes. Nature of the test: Mixed-cell assay, B lymphocytes in mixed PBMC population by flow cytometry. The conditions noted are these: FIG. 5E; for suppression of B cell proliferation in mixed PBMC population: 1 μM to 50 μM range. The method, then:
as §3
(§4) In addition, the effect of OTG177 on B and T lymphocytes was examined by first gating all PBMCs by forward scattering (FSC) versus side scattering (SSC) and isolating the low SSC and high FSC population (FIG. 5C), gating on this selection, the populations of segregated based on their staining to CD19 (red) and CD3 antibodies (green) (FIG. 5D).

In test [3] the test system is primary CD3+ T lymphocytes. Nature of the test: Mixed-cell assay, T lymphocytes in mixed PBMC population by flow cytometry. The conditions noted are these: up to 50 μM; healthy, PV and SLE plasma; FIG. 5F. The method, then: as §3, §4

“Also recorded” adds a separate entry of the source.

Consider `C[C@H](NC(=O)CCC(=O)O)C(=O)N[C@@H](C)C(=O)N[C@@H](Cc1ccccc1)C(=O)Nc1ccc2c(c1)COP(=O)(OC[C@H]1O[C@@H](n3cnc(C(N)=O)n3)[C@H](O)[C@@H]1O)O2` (stereo partly drawn) [OTG177, 4-[[(1S)-2-[[(1S)-2-[[(1S)-1-benzyl-2-[[2-[[(2R,3S,4R,5R)-5-(3-carbamoyl-1,2,4-triazol-1-yl)-3,4-dihydroxy-tetrahydrofuran-2-yl]methoxy]-2-oxo-4H-1,3,2benzodioxaphosphinin-6-yl]amino]-2-oxo-ethyl]amino]-1-methyl-2-oxo-ethyl]amino]-1-methyl-2-oxo-ethyl]amino]-4-oxo-butanoic Acid], for which the “antiproliferative activity in B cells” value in the test on CD19+ primary B cells (10% flaring pemphigus vulgaris donor's plasma, FIG. 4C) is listed as “strong antiproliferative activity”; in the test on CD19+ primary B cells (10% healthy donor's plasma, FIG. 4B) it was “did not exhibit detectable antiproliferative activity”. Further, the “antiproliferative activity in T cells” value in the test on CD3+ primary T cells (10% flaring pemphigus vulgaris donor's plasma, FIG. 4E) is given as “did not exhibit antiproliferative activity”; with CD3+ primary T cells (10% healthy donor's plasma, FIG. 4D), “did not exhibit antiproliferative activity”. The “effect on PBMC composition (% granulocytes, monocytes, lymphocytes)” value in test [1] is “not affected; also recorded: does not have obvious effects”. For the same compound, the “suppression of B cell proliferation in mixed PBMC population” value in test [2] (stimulated with PV plasma) and in test [2] (stimulated with SLE plasma) was “dose-dependent suppression; also recorded: suppressive effect” in each case. For the same compound, the “effect on B cells in mixed PBMC population” value in test [2] (stimulated with healthy plasma, 1, 10, 50 μM) is “not affected”. Besides, in test [3], the “effect on T cells in mixed PBMC population” value is reported as “not affected; also recorded: no obvious effect”.
